Patent publication US20060252807A1, “Novel ortho-terphenyl inhibitors of p38 kinase and methods of treating inflammatory disorders” (Kalypsys, Inc., priority 2005, published 2006)

The compounds below were run against T1, active p38 alpha enzyme (Upstate Biotechnology) (Homo sapiens, UniProt Q16539) (assay: p38α biochemical assay (ATP turnover, luminescent detection, Cambrex PKlight)). Settings: p38α biochemical assay, Table 1 Biological Activity.
T1 construct: purchased Upstate Biotechnology
How it was run: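 p38α + MapkapK2 (whole protein substrate) + 1.4 uM ATP final; Tris/MOPS buffer with MgCl2, CaCl2, EGTA, EDTA, glycerol, β-ME, BSA; 2 h at 30C; luminescent detection of remaining ATP.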

T1 sequence (Q16539 whole entry): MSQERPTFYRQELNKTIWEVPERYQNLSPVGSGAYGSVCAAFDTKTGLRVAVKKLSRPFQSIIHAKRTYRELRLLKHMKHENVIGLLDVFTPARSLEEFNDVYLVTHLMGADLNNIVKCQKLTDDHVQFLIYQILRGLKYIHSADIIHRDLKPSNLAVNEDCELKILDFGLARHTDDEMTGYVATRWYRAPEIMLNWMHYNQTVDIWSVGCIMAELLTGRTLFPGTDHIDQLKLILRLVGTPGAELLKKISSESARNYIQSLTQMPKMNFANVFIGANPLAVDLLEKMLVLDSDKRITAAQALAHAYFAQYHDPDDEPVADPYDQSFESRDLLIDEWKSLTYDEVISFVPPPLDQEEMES

| SMILES | IC50 |
| --- | --- |
| CC(C)NC(=O)c1csc(-c2oc(CNC(=O)C3CC(O)CN3C(=O)OC(C)(C)C)nc2-c2ccc(F)cc2)n1 (stereo not drawn) [Example 317] | > 1000 nM |
| CC(C)NC(=O)c1csc(-c2oc(CNC(=O)C(C(C)C)N(C)C(=O)OC(C)(C)C)nc2-c2ccc(F)cc2)n1 (stereo not drawn) [Example 318] | > 1000 nM |
| CC(C)NC(=O)c1csc(-c2oc(CNC(=O)c3cc(Br)ccc3Cl)nc2-c2ccc(F)cc2)n1 [Example 320] | ≤ 1000 nM |
| CC(C)NC(=O)c1csc(-c2oc(CNC(=O)c3ccc(Cl)c(Br)c3)nc2-c2ccc(F)cc2)n1 [Example 321] | > 1000 nM |
| CC(C)NC(=O)c1csc(-c2oc(CNC(=O)c3ccccc3C(=O)c3ccc(F)cc3)nc2-c2ccc(F)cc2)n1 [Example 323] | > 1000 nM |
| CC(C)NC(=O)c1csc(-c2oc(CNC(=O)C3CCCN3C(=O)OCc3ccccc3)nc2-c2ccc(F)cc2)n1 (stereo not drawn) [Example 327] | > 1000 nM |
| CC(C)CC(NC(=O)OC(C)(C)C)C(=O)NCc1nc(-c2ccc(F)cc2)c(-c2nc(C(=O)NC(C)C)cs2)o1 (stereo not drawn) [Example 329] | > 1000 nM |
| CC(C)NC(=O)c1csc(-c2oc(CNC(=O)C(C)c3cccc(C(=O)c4ccccc4)c3)nc2-c2ccc(F)cc2)n1 (stereo not drawn) [Example 330] | > 1000 nM |
| CC(C)NC(=O)c1csc(-c2oc(CNC(=O)C(Cc3ccccn3)NC(=O)OC(C)(C)C)nc2-c2ccc(F)cc2)n1 (stereo not drawn) [Example 332] | > 1000 nM |
| CC(C)NC(=O)c1csc(-c2oc(CNC(=O)C3Cc4ccccc4CN3C(=O)OC(C)(C)C)nc2-c2ccc(F)cc2)n1 (stereo not drawn) [Example 333] | > 1000 nM |
| CC(C)NC(=O)c1csc(-c2oc(CNC(=O)C(Cc3ccc(O)cc3)NC(=O)OC(C)(C)C)nc2-c2ccc(F)cc2)n1 (stereo not drawn) [Example 334] | ≤ 1000 nM |
| CC(C)NC(=O)c1csc(-c2oc(CN3CCN(C(=O)CC#N)CC3)nc2-c2ccc(F)cc2)n1 [Example 337] | ≤ 1000 nM |
| CC(C)NC(=O)c1csc(-c2oc(CN3CCN(C(=O)C(C)O)CC3)nc2-c2ccc(F)cc2)n1 (stereo not drawn) [Example 338] | > 1000 nM |
| CCC(=O)C(=O)N1CCN(Cc2nc(-c3ccc(F)cc3)c(-c3nc(C(=O)NC(C)C)cs3)o2)CC1 [Example 339] | > 1000 nM |
| CC(C)NC(=O)c1csc(-c2oc(CN3CCN(C(=O)C(C)(C)C)CC3)nc2-c2ccc(F)cc2)n1 [Example 340] | ≤ 1000 nM |
| CC(C)CC(=O)N1CCN(Cc2nc(-c3ccc(F)cc3)c(-c3nc(C(=O)NC(C)C)cs3)o2)CC1 [Example 341] | > 1000 nM |
| CC(C)NC(=O)c1csc(-c2oc(CN3CCN(C(=O)c4cnc[nH]4)CC3)nc2-c2ccc(F)cc2)n1 [Example 342] | ≤ 1000 nM |
| CC(C)NC(=O)c1csc(-c2oc(CN3CCN(C(=O)c4ncc[nH]4)CC3)nc2-c2ccc(F)cc2)n1 [Example 343] | ≤ 1000 nM |
| CC(C)NC(=O)c1csc(-c2oc(CN3CCN(C(=O)C4=CCCC4)CC3)nc2-c2ccc(F)cc2)n1 [Example 344] | > 1000 nM |
| CC(C)NC(=O)c1csc(-c2oc(CN3CCN(C(=O)C4CCCO4)CC3)nc2-c2ccc(F)cc2)n1 (stereo not drawn) [Example 346] | > 1000 nM |
| CC(=O)NCC(=O)N1CCN(Cc2nc(-c3ccc(F)cc3)c(-c3nc(C(=O)NC(C)C)cs3)o2)CC1 [Example 347] | > 1000 nM |
| CC(C)NC(=O)c1csc(-c2oc(CN3CCN(C(=O)c4ccccc4)CC3)nc2-c2ccc(F)cc2)n1 [Example 348] | > 1000 nM |
| CC(C)NC(=O)c1csc(-c2oc(CN3CCN(C(=O)c4ccccn4)CC3)nc2-c2ccc(F)cc2)n1 [Example 351] | > 1000 nM |

| SMILES | IC50 |
| --- | --- |
| CC(C)NC(=O)c1csc(-c2oc(CN3CCN(C(=O)C(O)CCl)CC3)nc2-c2ccc(F)cc2)n1 (stereo not drawn) [Example 352] | > 1000 nM |
| CC(C)NC(=O)c1csc(-c2oc(CN3CCN(C(=O)c4cn(C)cn4)CC3)nc2-c2ccc(F)cc2)n1 [Example 354] | ≤ 1000 nM |
| CC(C)NC(=O)c1csc(-c2oc(CN3CCN(C(=O)C4CCCCC4)CC3)nc2-c2ccc(F)cc2)n1 [Example 355] | ≤ 1000 nM |
| CC(C)NC(=O)c1csc(-c2oc(CN3CCN(C(=O)c4cscn4)CC3)nc2-c2ccc(F)cc2)n1 [Example 356] | ≤ 1000 nM |
| CCOC(=O)CC(=O)N1CCN(Cc2nc(-c3ccc(F)cc3)c(-c3nc(C(=O)NC(C)C)cs3)o2)CC1 [Example 357] | ≤ 1000 nM |
| Cc1cccc(C(=O)N2CCN(Cc3nc(-c4ccc(F)cc4)c(-c4nc(C(=O)NC(C)C)cs4)o3)CC2)c1 [Example 358] | > 1000 nM |
| Cc1ccccc1C(=O)N1CCN(Cc2nc(-c3ccc(F)cc3)c(-c3nc(C(=O)NC(C)C)cs3)o2)CC1 [Example 359] | > 1000 nM |
| Cc1ccc(C(=O)N2CCN(Cc3nc(-c4ccc(F)cc4)c(-c4nc(C(=O)NC(C)C)cs4)o3)CC2)cc1 [Example 360] | > 1000 nM |
| CC(C)NC(=O)c1csc(-c2oc(CN3CCN(C(=O)c4cccc(O)c4)CC3)nc2-c2ccc(F)cc2)n1 [Example 361] | > 1000 nM |
| CC(C)NC(=O)c1csc(-c2oc(CN3CCN(C(=O)c4ccccc4O)CC3)nc2-c2ccc(F)cc2)n1 [Example 362] | ≤ 1000 nM |
| CC(C)NC(=O)c1csc(-c2oc(CN3CCN(C(=O)c4cccc(C#N)c4)CC3)nc2-c2ccc(F)cc2)n1 [Example 367] | > 1000 nM |
| CC(C)NC(=O)c1csc(-c2oc(CN3CCN(C(=O)c4ccccc4C=O)CC3)nc2-c2ccc(F)cc2)n1 [Example 369] | ≤ 1000 nM |
| Cc1ccccc1CC(=O)N1CCN(Cc2nc(-c3ccc(F)cc3)c(-c3nc(C(=O)NC(C)C)cs3)o2)CC1 [Example 372] | > 1000 nM |
| Cc1cc(C)cc(C(=O)N2CCN(Cc3nc(-c4ccc(F)cc4)c(-c4nc(C(=O)NC(C)C)cs4)o3)CC2)c1 [Example 375] | > 1000 nM |
| Cc1ccc(C(=O)N2CCN(Cc3nc(-c4ccc(F)cc4)c(-c4nc(C(=O)NC(C)C)cs4)o3)CC2)cc1C [Example 376] | > 1000 nM |
| CCc1ccc(C(=O)N2CCN(Cc3nc(-c4ccc(F)cc4)c(-c4nc(C(=O)NC(C)C)cs4)o3)CC2)cc1 [Example 377] | > 1000 nM |
| COc1ccc(C(=O)N2CCN(Cc3nc(-c4ccc(F)cc4)c(-c4nc(C(=O)NC(C)C)cs4)o3)CC2)cc1 [Example 378] | > 1000 nM |
| CC(C)NC(=O)c1csc(-c2oc(CN3CCN(C(=O)Cc4ccccc4O)CC3)nc2-c2ccc(F)cc2)n1 [Example 380] | ≤ 1000 nM |
| CC(C)NC(=O)c1csc(-c2oc(CN3CCN(C(=O)Cc4cccc(O)c4)CC3)nc2-c2ccc(F)cc2)n1 [Example 381] | ≤ 1000 nM |
| Cc1ccc(O)c(C(=O)N2CCN(Cc3nc(-c4ccc(F)cc4)c(-c4nc(C(=O)NC(C)C)cs4)o3)CC2)c1 [Example 382] | ≤ 1000 nM |
| CC(C)NC(=O)c1csc(-c2oc(CN3CCN(C(=O)c4cc(O)ccc4O)CC3)nc2-c2ccc(F)cc2)n1 [Example 383] | ≤ 1000 nM |
| CC(C)NC(=O)c1csc(-c2oc(CN3CCN(C(=O)c4cccc(O)c4O)CC3)nc2-c2ccc(F)cc2)n1 [Example 384] | ≤ 1000 nM |

Next, values leading:

| IC50 | SMILES |
| --- | --- |
| ≤ 1000 nM | CC(C)NC(=O)c1csc(-c2oc(CNC(=O)c3ccc(C(F)(F)F)cc3[N+](=O)[O-])nc2-c2ccc(F)cc2)n1 [Example 319] |
| ≤ 1000 nM | CC(C)NC(=O)c1csc(-c2oc(CNC(=O)c3ccccc3C(=O)c3ccc(O)cc3)nc2-c2ccc(F)cc2)n1 [Example 322] |
| > 1000 nM | CC(C)NC(=O)c1csc(-c2oc(CNC(=O)C(C)c3ccc(-c4ccccc4)c(F)c3)nc2-c2ccc(F)cc2)n1 (stereo not drawn) [Example 324] |
| > 1000 nM | CCC(C)C(NC(=O)OC(C)(C)C)C(=O)NCc1nc(-c2ccc(F)cc2)c(-c2nc(C(=O)NC(C)C)cs2)o1 (stereo not drawn) [Example 328] |
| ≤ 1000 nM | CC(C)NC(=O)c1csc(-c2oc(CNC(=O)C(Cc3ccccc3)NC(=O)OC(C)(C)C)nc2-c2ccc(F)cc2)n1 (stereo not drawn) [Example 331] |
| ≤ 1000 nM | CC(=O)N1CCN(Cc2nc(-c3ccc(F)cc3)c(-c3nc(C(=O)NC(C)C)cs3)o2)CC1 [Example 335] |
| ≤ 1000 nM | CC(C)NC(=O)c1csc(-c2oc(CN3CCN(C(=O)C=O)CC3)nc2-c2ccc(F)cc2)n1 [Example 336] |
| ≤ 1000 nM | CC(C)NC(=O)c1csc(-c2oc(CN3CCN(C(=O)C(F)(F)F)CC3)nc2-c2ccc(F)cc2)n1 [Example 345] |
| > 1000 nM | CC(C)NC(=O)c1csc(-c2oc(CN3CCN(C(=O)c4cccnc4)CC3)nc2-c2ccc(F)cc2)n1 [Example 349] |
| ≤ 1000 nM | CC(C)NC(=O)c1csc(-c2oc(CN3CCN(C(=O)c4ccncc4)CC3)nc2-c2ccc(F)cc2)n1 [Example 350] |
| ≤ 1000 nM | Cc1cc(C(=O)N2CCN(Cc3nc(-c4ccc(F)cc4)c(-c4nc(C(=O)NC(C)C)cs4)o3)CC2)n[nH]1 [Example 353] |
| > 1000 nM | CC(C)NC(=O)c1csc(-c2oc(CN3CCN(C(=O)c4ccc(F)cc4)CC3)nc2-c2ccc(F)cc2)n1 [Example 363] |
| > 1000 nM | CC(C)NC(=O)c1csc(-c2oc(CN3CCN(C(=O)c4cccc(F)c4)CC3)nc2-c2ccc(F)cc2)n1 [Example 364] |
| > 1000 nM | CCCCCCCC(=O)N1CCN(Cc2nc(-c3ccc(F)cc3)c(-c3nc(C(=O)NC(C)C)cs3)o2)CC1 [Example 365] |
| > 1000 nM | CC(C)NC(=O)c1csc(-c2oc(CN3CCN(C(=O)c4ccc(C#N)cc4)CC3)nc2-c2ccc(F)cc2)n1 [Example 366] |
| > 1000 nM | CC(C)NC(=O)c1csc(-c2oc(CN3CCN(C(=O)/C=C/c4ccccc4)CC3)nc2-c2ccc(F)cc2)n1 [Example 368] |
| > 1000 nM | CC(C)NC(=O)c1csc(-c2oc(CN3CCN(C(=O)c4ccc(C=O)cc4)CC3)nc2-c2ccc(F)cc2)n1 [Example 370] |
| ≤ 1000 nM | Cc1ccc(C(=O)N2CCN(Cc3nc(-c4ccc(F)cc4)c(-c4nc(C(=O)NC(C)C)cs4)o3)CC2)c(C)c1 [Example 371] |
| > 1000 nM | Cc1cccc(C(=O)N2CCN(Cc3nc(-c4ccc(F)cc4)c(-c4nc(C(=O)NC(C)C)cs4)o3)CC2)c1C [Example 373] |
| > 1000 nM | Cc1ccc(C)c(C(=O)N2CCN(Cc3nc(-c4ccc(F)cc4)c(-c4nc(C(=O)NC(C)C)cs4)o3)CC2)c1 [Example 374] |
| ≤ 1000 nM | Cc1cccc(C(=O)N2CCN(Cc3nc(-c4ccc(F)cc4)c(-c4nc(C(=O)NC(C)C)cs4)o3)CC2)c1O [Example 379] |
